Results from patent US9839642B2, “Beta-tetrazolyl-propionic acids as metallo-beta-lactamase inhibitors” (priority 2014, dated 2017).
Read-outs that look alike come from different tables or passages of the source.

Legend:
IMP-1 = IMP-1 (Serratia marcescens, UniProt P52699); assay: Enzyme activity: determination of IC50, fluorescence assay with CCF2-FA substrate; format: biochemical; conditions: CCF2-FA 1.25 μM, 2 hours at 25° C., read-out: IMP1 IC50
Experimental: (§1) Enzyme Activity: Determination of IC50
(§2) The Class B enzyme activities were measured in the presence of a compound of the EXAMPLES as a test inhibitor in a fluorescence assay against a commercially available substrate consisting of a cephalosporin core linking 7-hydroxycoumarin to fluorescein (CCF2-FA; Life Technologies, Grand Island, N.Y.). The enzyme (NDM-1, IMP-1 or VIM-1) and the substrate were diluted in 100 mM KH2PO4 buffer (pH 7) containing 0.005% Tween-20 and 10 μM ZnSO4. In the assay, the final concentration of enzyme was 1 pM, 2 pM and 30 pM for NDM-1, IMP-1 and VIM-1, respectively, and the final concentration of CCF2-FA was 1.25 μM. The test inhibitor was dissolved in DMSO and diluted 1:50 in the assay, resulting in a final concentration range of 20 μM to 0.00063 μM. In a 384-well microplate, the test inhibitor was incubated with the metallo-β-lactamase enzyme and the substrate for 2 hours at 25° C. Fluorescence at 460 nm following excitation at 405 nm was measured. The IC50 value was determined from semi-logarithmic plots of enzyme inhibition versus inhibitor concentration, with a curve generated using a 4-parameter fit.

NDM-1 = NDM-1 (Klebsiella pneumoniae, UniProt C7C422); assay: as above; format: biochemical; conditions: CCF2-FA 1.25 μM, 2 hours at 25° C., read-out: NDM1 IC50
Sequence of NDM-1 (C7C422 29-270, looked up, species assumed): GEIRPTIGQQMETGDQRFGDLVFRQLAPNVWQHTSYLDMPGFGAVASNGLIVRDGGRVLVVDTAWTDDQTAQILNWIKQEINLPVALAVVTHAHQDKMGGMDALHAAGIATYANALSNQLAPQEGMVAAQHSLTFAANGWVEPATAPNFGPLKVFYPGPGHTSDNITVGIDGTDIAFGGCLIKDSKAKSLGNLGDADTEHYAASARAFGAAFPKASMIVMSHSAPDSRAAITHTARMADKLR
Experimental: as §1, §2

VIM-1 = VIM-1 (Pseudomonas aeruginosa, UniProt A0A0F7KYQ8); assay: as above; format: biochemical; conditions: CCF2-FA 1.25 μM, 2 hours at 25° C., read-out: VIM1 IC50
Experimental: as §1, §2

[1] = tested on: Escherichia coli expressing NDM-1 (CLB30016); assay: Antibiotic potentiation activity: synergistic concentration (MITC95) with imipenem, growth by OD600; format: cell-based
Experimental: (§3) Antibiotic Potentiation Activity: Determination of Synergistic Concentration
(§4) The bacterial strains tested included the clinical strains Escherichia coli expressing NDM-1 (CLB30005, CLB30016), Serratia marcescens expressing IMP-1 (CL5741), and Klebsiella pneumoniae expressing VIM-1 (IHMA599644). Inhibitor activity was measured in the presence and absence of imipenem or ceftazidime in a 384-well microplate.
(§5) The clinical strains CLB30016, CL5741, and IHMA599644 were grown on trypticase soy agar containing 5% sheep's blood. The clinical strain CLB30005 was grown on Mueller Hinton broth agar containing 8 μg/ml imipenem. The bacteria on agar plates were incubated overnight at 35° C. with ambient humidity (achieved from an open pan of water inside the incubator). The following day, individual colonies from each clinical strain were picked and resuspended in 5 ml saline to attain an OD600 of 0.14, 0.11, 0.15 and 0.13, for CLB30005, CLB30016, CL5741 and IHMA599644, respectively. These were further diluted 1:100 into 1.1×CAMHB and used to inoculate the test wells as described below.
(§6) Imipenem in 10 mM 3-(N-morpholino)propanesulfonic acid (MOPS, pH 7) was stored in single use aliquots at −80° C. Test inhibitors were dissolved in DMSO and diluted 1:50 in the assay, resulting in a final concentration range of 200 μM to 0.195 μM. On the day of the assay, 4 μl of antibiotic was added to 45 μl of bacteria followed by 1 μl of test compound and mixed by pipetting and with an orbital shaker. The concentration of antibiotic used in the assay was 1 μg/ml or 4 μg/ml. Microplates were covered and incubated at 35° C. for 22 hours to 24 hours. At the end of the incubation, absorbance was determined using a spectrophotometer. The synergistic concentration of MBLI was determined by identifying the lowest concentration of test compound in the presence of a given concentration of antibiotic that was required to inhibit 95% of the growth of the bacteria.
(§7) Representative compounds of the present invention display a synergistic effect. For example, representative compounds of EXAMPLES 1-456 were determined to restore susceptibility to imipenem at concentrations of 200 μM or less.

[2] = tested on: Klebsiella pneumoniae expressing VIM-1 (IHMA599644); assay: as above; format: cell-based
Experimental: as §3, §4, §5, §6, §7

[3] = tested on: Serratia marcescens expressing IMP-1 (CL5741); assay: as above; format: cell-based
Experimental: as §3, §4, §5, §6, §7

[4] = E. coli CLB30016 (NDM-1), 95% inhibition of growth
[5] = K. pneumoniae IHMA599644 (VIM-1), 95% inhibition of growth
[6] = S. marcescens CL5741 (IMP-1), 95% inhibition of growth
[7] = 95% inhibition of bacterial growth, strain CLB30016
[8] = 95% inhibition of bacterial growth, strain IHMA599644
[9] = 95% inhibition of bacterial growth, strain CL5741

Sequence of IMP-1 (P52699 19-246, looked up, species assumed): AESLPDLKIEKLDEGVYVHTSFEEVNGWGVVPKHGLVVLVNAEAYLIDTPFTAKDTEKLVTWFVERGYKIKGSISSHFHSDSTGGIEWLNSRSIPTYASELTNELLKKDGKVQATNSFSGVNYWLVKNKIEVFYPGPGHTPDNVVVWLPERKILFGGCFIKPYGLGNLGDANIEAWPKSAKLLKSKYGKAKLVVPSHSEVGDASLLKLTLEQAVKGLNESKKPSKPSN

| SMILES | IC50 (IMP-1; IMP-1 enzyme 2 pM) | IC50 (NDM-1; NDM-1 enzyme 1 pM) | IC50 (VIM-1; VIM-1 enzyme 30 pM) | NDM1 EC30016 MITC95 [1, 4] | VIM1 KP599644 MITC95 [2, 5] | IMP1 SM5741 MITC95 [3, 6] | IC50 (IMP-1; enzyme 2 pM) | IC50 (NDM-1; enzyme 1 pM) | IC50 (VIM-1; enzyme 30 pM) | NDM1 EC30016 MITC95 [1, 7] | VIM1 KP599644 MITC95 [2, 8] | IMP1 SM5741 MITC95 [3, 9] |
| --- | --- | --- | --- | --- | --- | --- | --- | --- | --- | --- | --- | --- |
| CCC[C@H](C(=O)O)[C@H](Cc1ccc(C2CCNCC2O)cc1)c1nnn[nH]1 (mixture of isomers) [Example 416, (2S)-2-((1S)-2-(4-(3-hydroxypiperidin-4-yl)phenyl)-1-(1H-tetrazol-5-yl)ethyl)pentanoic acid] | 1140 nM | 280 nM | 20.8 nM | 25 µM | 25 µM | 25 µM |  |  |  |  |  |  |
| CCC[C@H](C(=O)O)C(Cc1cccc(C(F)(F)F)c1)c1nnn[nH]1 (stereo in doubt) [Example 267, (2S)-2-{(1S)-1-(1H-tetrazol-5-yl)-2-[3-(trifluoromethyl)phenyl]ethyl}pentanoic acid] | 280 nM | 14 nM | 0.86 nM | 9.4 µM | 18.8 µM | 9.4 µM |  |  |  |  |  |  |
| CCC[C@H](C(=O)O)C(Cc1ccccc1C(F)(F)F)c1nnn[nH]1 (stereo in doubt) [Example 268, (2S)-2-{(1S)-1-(1H-tetrazol-5-yl)-2-[2-(trifluoromethyl)phenyl]ethyl}pentanoic acid] | 2700 nM | 6.4 nM | 3.2 nM | 7.8 µM | 12.5 µM | 75 µM |  |  |  |  |  |  |
| CCC[C@H](C(=O)O)[C@H](Cc1cccc(Br)c1)c1nn[nH]n1 [Example 16, (S)-2-((S)-2-(3-bromophenyl)-1-(2H-tetrazol-5-yl)ethyl)pentanoic acid] |  |  |  |  |  |  | 120 nM | 12 nM | 0.75 nM | 9.4 µM | 9.4 µM | 4.7 µM |
| CC(C)C[C@H](C(=O)O)[C@H](Cc1ccc(Br)c(F)c1)c1nnn[nH]1 [Example 23, (2S)-2-[(1S)-2-(4-bromo-3-fluorophenyl)-1-(1H-tetrazol-5-yl)ethyl]-4-methylpentanoic acid] |  |  |  |  |  |  | 88 nM | 20 nM | 1.4 nM | 6.3 µM | 31 µM | 3.1 µM |
| CC(C)C[C@H](C(=O)O)[C@H](Cc1cc(F)cc(Br)c1)c1nnn[nH]1 [Example 24, (2S)-2-[(1S)-2-(3-bromo-5-fluorophenyl)-1-(1H-tetrazol-5-yl)ethyl]-4-methylpentanoic acid] |  |  |  |  |  |  | 230 nM | 18 nM | 0.6 nM | 9.4 µM | 12.5 µM | 4.7 µM |
| CC(C)C[C@H](C(=O)O)[C@H](Cc1ccc(Br)cc1)c1nnn[nH]1 [Example 25, (2S)-2-[(1S)-2-(4-bromophenyl)-1-(1H-tetrazol-5-yl)ethyl]-4-methylpentanoic acid] |  |  |  |  |  |  | 87 nM | 32 nM | 2.6 nM | 4.7 µM | 12.5 µM | 3.1 µM |
| CC(C)[C@H](C(=O)O)[C@H](Cc1csc(C2=CCNC2)n1)c1nnn[nH]1 [Example 71, (2S,3S)-4-(2-(2,5-dihydro-1H-pyrrol-3-yl)thiazol-4-yl)-2-isopropyl-3-(1H-tetrazol-5-yl)butanoic acid] |  |  |  |  |  |  |  | 570 nM | 120 nM | 12.5 µM | 25 µM | >200 µM |
| CCC[C@H](C(=O)O)[C@H](Cc1cnc(N2CCNCC2)s1)c1nnn[nH]1 [Example 120, (S)-2-((S)-2-(2-(piperazin-1-yl)thiazo1-5-yl)-1-(1H-tetrazol-5-yl)ethyl)pentanoic acid] |  |  |  |  |  |  |  | 1200 nM | 8.5 nM | 25 µM | 37 µM | >200 µM |
| CC(C)C[C@H](C(=O)O)[C@H](Cc1ccc(N2CC(N3CCNCC3)C2)nc1)c1nnn[nH]1 [Example 324, (2S)-4-methyl-2-[(1S)-2-[6-(3-piperazin-1-ylazetidin-1-yl)pyridin-3-yl]-1-(1H-tetrazol-5-yl)ethyl]pentanoic acid] |  |  |  | >200 µM | >200 µM | >200 µM |  |  |  |  |  |  |
| CC(C)C[C@H](C(=O)O)[C@H](Cc1ccc(N2CC(N3CCNCC3)C2)nc1)c1nnn[nH]1 [Example 334, (2S)-4-methyl-2-[(1S)-2-[6-(3-piperazin-1-ylazetidin-1-yl)pyridin-3-yl]-1-(1H-tetrazol-5-yl)ethyl]pentanoic acid] |  |  |  | 6.2 µM | 50 µM | 25 µM |  |  |  |  |  |  |
| CC(C)C[C@H](C(=O)O)[C@H](Cc1ccc(Oc2ccc(CCN)cc2)nc1)c1nn[nH]n1 [Example 371, (2S)-2-[(1S)-2-{6-[4-(2-aminoethyl)phenoxy]pyridin-3-yl}-1-(2H-tetrazol-5-yl)ethyl]-4-methylpentanoic acid] | 290 nM | 93 nM |  | 12.5 µM | 75 µM | 12.5 µM |  |  |  |  |  |  |
| CC(C)C[C@H](C(=O)O)[C@H](Cc1ccc(Oc2ccccc2N2CCNCC2)nc1)c1nn[nH]n1 [Example 372, (2S)-4-methyl-2-[(1S)-2-[6-(2-piperazin-1-ylphenoxy)pyridin-3-yl]-1-(2H-tetrazol-5-yl)ethyl]pentanoic acid] | 1600 nM | 570 nM |  | 38 µM | >200 µM | 75 µM |  |  |  |  |  |  |
| CC(C)C[C@H](C(=O)O)[C@H](Cc1ccc(Oc2ccccc2N2CCNCC2)nc1)c1nn[nH]n1 [Example 387, (2S)-4-methyl-2-[(1S)-2-[6-(2-piperazin-1-ylphenoxy)pyridin-3-yl]-1-(2H-tetrazol-5-yl)ethyl]pentanoic acid] | 2400 nM | 880 nM |  | >200 µM | >200 µM | >200 µM |  |  |  |  |  |  |
| CC(C)C[C@H](C(=O)O)[C@H](Cc1ccc(Oc2ccc(CCN)cc2)nc1)c1nn[nH]n1 [Example 392, (2S)-2-[(1S)-2-{6-[4-(2-aminoethyl)phenoxy]pyridin-3-yl}-1-(2H-tetrazol-5-yl)ethyl]-4-methylpentanoic acid] | 270 nM | 49 nM |  | 6.2 µM | 75 µM | 25 µM |  |  |  |  |  |  |
| CC(C)(C)[C@H](C(=O)O)[C@H](Cc1ccc(NCCO)nc1)c1nnn[nH]1.O=C(O)C(F)(F)F [Example 428, 2,2,2-trifluoroacetate] | 18.8 nM | 45.4 nM | 37.2 nM |  |  |  |  |  |  |  |  |  |
| CC(C)(C)[C@H](C(=O)O)[C@H](Cc1ccc(NCCO)nc1)c1nnn[nH]1.O=C(O)C(F)(F)F [Example 428] |  |  |  | 0.7813 µM | 12.5 µM | 1.563 µM |  |  |  |  |  |  |
